Reference: patent US20070072939A1, “Cannabinoid active pharmaceutical ingredient for improved dosage forms” (Euro-Celtique, S.A., priority 2005, published 2007)

Key:
[1] = sufficiently purified trans-(+)-Δ^9-THC; cited from earlier work
[2] = purified resinous material, background statement; cited from earlier work
[3] = delivery by inhalation (e.g., by smoking); cited from earlier work
[4] = stability of the substance to air, light and temperature (appearance)

CCCCCc1cc(O)c2c(c1)OC(C)(C)[C@H]1CCC(C)=C[C@H]21 [trans-(+)-Δ^9-THC, trans-(+)-Δ^9-tetrahydrocannabinol]
activity relative to the trans-(−)-Δ^9-THC enantiomer [1]: ~1%

CCCCCc1cc(O)c2c(c1)OC(C)(C)[C@@H]1CCC(C)=C[C@@H]21 [trans-(−)-Δ^9-THC, (−)-6a, 10a-trans-Δ^9-tetrahydrocannabinol]
chemical stability to light, oxygen and heat [2]: chemically unstable to light, oxygen, and heat
onset of pharmacological activity [3]: ≤ 10 minutes

trans-(±)-Δ^9-tetrahydrocannabinol [crystalline trans-(±)-Δ^9-THC]
stability ([4]; 25° C. in the presence of air and laboratory lighting, Example 12 material): stable
retention of white appearance ([4]; 25° C., Example 10 material, expected): retain that white appearance for at least three days
appearance after storage ([4]; held for three days at room temperature in the presence of air and laboratory lighting): remained white
